The values below come from patent US20130030025A1, “USE OF POTASSIUM CHANNEL BLOCKERS TO TREAT CEREBRAL PALSY” (priority 2011, published 2013).

The subject of data set [1] is middle cerebral artery occlusion (MCAO) in rats. Briefly: Cylinder test, total movement after MCAO. Format: in vivo, Sprague Dawley rats. On the procedure: The Y axis represents the behavioral score. […] Treatment groups: Dosing was started 4 weeks after pMCAO surgery. During these 4 weeks, weekly behavioral assessments, as defined below, were performed. Two dose levels of 4-AP plus vehicle control were assessed, with treatment starting at 4 weeks after ischemic event. All dosing was via gastric gavage, volume not to exceed 2 mL/kg. Animals were given the first dose and behavioral assessments were performed starting 60 minutes after dosing. Animals then received the second dose that day at the appropriate time and b.i.d (preferably every 12 hours) thereafter for 2 more days (3 total days of dosing, 5 total doses). One hour after the 5th dose, animals were subjected to behavioral assessments as defined below. Following the final behavioral assessment, drug was withdrawn for 10 or 11 days, behavior was re-assessed, and then animals were re-challenged with a cross-over treatment (Phase II of Table 1B) as described in Tables 1A, 1B, followed by the same behavioral testing and dosing regimen. This cross-over was repeated one more time as well (Phase III of Table 1B) (see FIG. 2). Behavioral test details: Behavioral evaluations were done by investigators blinded to treatment assignment. As described above, behavioral assessments were timed exactly with dosing times. Animals were given the first dose, behavioral assessments were performed starting 60 minutes later, and blood was collected 90 minutes after dosing. Animals then received the second dose that day at the appropriate time and b.i.d (preferably every 12 hours) thereafter for 2 more days (3 total days of dosing, 5 total doses). One hour after the 5th dose, animals were subjected to behavioral testing. Following the final behavioral assessment, drug was withdrawn for 10 or 11 days, behavior was re-assessed, and then animals were re-challenged with a cross-over treatment as described in Tables 1A, 1B, and FIG. 2, followed by the same behavioral testing and dosing regimen. Evaluation was performed at Day -1 (pre-operation), Day 7, Day 21, Day 30, Day 32, Day 44, Day 46, Day 58, Day 60. This test assessed limb use asymmetry. Rats were placed in a transparent cylinder (20 cm in diameter and 30 cm in height) for 3-6 minutes. A mirror was placed behind the cylinder to determine forelimb movements when animal was turned away from the camera. […] Simultaneous use of both left and right forelimbs while contacting the wall during a full rear was also scored. A total number of 20 forelimb placings were counted during a trial. Data was expressed in terms of percent use of the non-impaired and or impaired forelimb relative to the total number of limb use observations for wall movements.

For data set [2], the system named is patients with multiple sclerosis. Conditions: p<0.05; cited from earlier work.
The conditions of data set [3]: typical; (94 ng·mL^−1); cited from earlier work.

Regarding `Nc1ccncc1` [4-AP, 4-aminopyridine], the “Cylinder Test (Total Movement), Mean” value is listed as 9.47 in data set [1] (Group I, D30, first dosing phase (high dose, inferred)); 16.20 in data set [1] (Group I, D32, first dosing phase (high dose, inferred)); 39.20 in data set [1] (Group I, D44, second dosing phase (low dose, inferred)); 23.87 in data set [1] (Group I, D46, second dosing phase (low dose, inferred)); 46.87 in data set [1] (Group II, D30, N 15); 36.20 in data set [1] (Group II, D32, N 15). The “Cylinder Test (Total Movement), Mean” value is 11.60 in data set [1] (Group II, D58, N 15); 12.93 in data set [1] (Group II, D60, N 15); 19.13 in data set [1] (Group III, D44, N 15); 18.73 in data set [1] (Group III, D46, N 15); 32.33 in data set [1] (Group III, D58, N 15); 26.67 in data set [1] (Group III, D60, N 15). In addition, the “leg strength (LEMMT) relative to placebo” value in data set [2] is given as “statistically significantly improved”. In addition, the “plasma concentrations obtained in clinical studies” value in data set [3] was less than 1 µM.
